Test results taken from US12286632B2, “Rationally-designed synthetic peptide shuttle agents for delivering polypeptide cargos from an extracellular space to the cytosol and/or nucleus of a target eukaryotic cell, uses thereof, methods and kits relating to same” (Feldan Bio Inc., priority 2016, dated 2025).
Bridge positions count the residues as written; N and C are the ends. Ends that are not written are not given here. Peptide text beside a SMILES is read from it. I, II: the chains in the order shown.

Columns and labels:
in vitro [1] = conditions: human, HeLa cells
HeLa cells = experiment: GFP-NLS protein transduction assay (flow cytometry: Pos cells %, viability %, relative fluorescence intensity; microscopy)
in vitro [2] = conditions: human, HeLa cells; remark: listed apart in the source
[3] = Cell viability (%) (±St. Dev.; n = 3)
[4] = Table B3, HeLa cells, GFP-NLS cargo
[5] = Table 10.3a, Protocol B, HeLa, shuttle 50 μM, GFP-NLS 5 μM, 10 seconds
[6] = Cell viability (%) (±St Dev.; n = 3)
[7] = Table 10.3e, Protocol B, HeLa, shuttle 20 μM, GFP-NLS 5 μM, 1 minute

For `CSCC[C@H](NC(=O)[C@H](CCCCN)NC(=O)[C@H](CC(N)=O)NC(=O)[C@H](CC(C)C)NC(=O)[C@H](Cc1c[nH]c2ccccc12)NC(=O)[C@H](Cc1ccccc1)NC(=O)[C@H](CS)NC(=O)[C@H](CC(C)C)NC(=O)[C@H](Cc1ccccc1)NC(=O)[C@H](CCC(N)=O)NC(=O)[C@H](Cc1c[nH]cn1)NC(=O)[C@H](Cc1c[nH]cn1)NC(=O)[C@H](Cc1c[nH]cn1)NC(=O)[C@H](Cc1c[nH]cn1)NC(=O)[C@H](Cc1c[nH]cn1)NC(=O)[C@@H](N)Cc1c[nH]cn1)C(=O)NCC(=O)N[C@@H](CCCCN)C(=O)N[C@@H](Cc1c[nH]cn1)C(=O)N[C@@H](CC(N)=O)C(=O)N[C@H](C(=O)N[C@H](C(=O)N[C@@H](Cc1c[nH]c2ccccc12)C(=O)N[C@@H](Cc1c[nH]cn1)C(=O)NCC(=O)N[C@@H](CCCNC(=N)N)C(=O)N[C@@H](Cc1c[nH]cn1)C(=O)N[C@@H](CC(C)C)C(=O)N[C@@H](CCCCN)C(=O)N[C@@H](CS)C(=O)N[C@@H](Cc1c[nH]cn1)C(=O)N[C@@H](CCCCN)C(=O)N[C@@H](CCCNC(=N)N)C(=O)NCC(=O)N[C@@H](CCCCN)C(=O)NCC(=O)O)C(C)C)[C@@H](C)O` [FSN3] (H-HHHHHHQFLCFWLNKMGKHNTVWHGRHLKCHKRGKG-OH; N-terminus and C-terminus assumed), the viability (in vitro [1]; [3]) was 97.2 ± 2.03%.
In the case of `CC(C)C[C@H](NC(=O)[C@H](CC(C)C)NC(=O)[C@H](CCCNC(=N)N)NC(=O)[C@H](CCCNC(=N)N)NC(=O)[C@H](Cc1c[nH]c2ccccc12)NC(=O)[C@H](CC(C)C)NC(=O)[C@H](Cc1ccc(O)cc1)NC(=O)[C@H](CC(C)C)NC(=O)[C@H](CC(C)C)NC(=O)[C@H](Cc1c[nH]cn1)NC(=O)[C@H](Cc1c[nH]cn1)NC(=O)[C@H](Cc1c[nH]cn1)NC(=O)[C@H](Cc1c[nH]cn1)NC(=O)[C@H](Cc1c[nH]cn1)NC(=O)[C@@H](N)Cc1c[nH]cn1)C(=O)N[C@@H](CCCCN)C(=O)N[C@@H](Cc1ccccc1)C(=O)N[C@@H](Cc1c[nH]c2ccccc12)C(=O)N[C@@H](CS)C(=O)N[C@@H](C)C(=O)NCC(=O)N[C@@H](CCCNC(=N)N)C(=O)N[C@@H](CCCNC(=N)N)C(=O)N[C@H](C(=O)N[C@@H](Cc1ccc(O)cc1)C(=O)N[C@@H](C)C(=O)N[C@@H](CCCCN)C(=O)N[C@@H](CS)C(=O)N[C@@H](C)C(=O)N[C@@H](CCCCN)C(=O)N[C@@H](C)C(=O)N[C@@H](Cc1ccc(O)cc1)C(=O)NCC(=O)N[C@@H](CS)C(=O)N[C@@H](Cc1ccccc1)C(=O)O)C(C)C` [FSN4] (H-HHHHHHLLYLWRRLLKFWCAGRRVYAKCAKAYGCF-OH; N-terminus and C-terminus assumed), the “Mean % cells with GFP signal (±St Dev.; n = 3)” value (“Mean % cells … (±St Dev.; n = 3)” for short) (HeLa cells; [4]) is reported as 5.84 ± 0.49% and the viability (in vitro [1]; [3]) is reported as 90.5 ± 4.18%.
With `N=C(N)NCCC[C@H](NC(=O)[C@H](CCCNC(=N)N)NC(=O)[C@H](CCCNC(=N)N)NC(=O)[C@H](CCC(N)=O)NC(=O)[C@H](CCCNC(=N)N)NC(=O)[C@H](CCCNC(=N)N)NC(=O)[C@H](CCCCN)NC(=O)[C@H](CCCCN)NC(=O)[C@H](CCCNC(=N)N)NC(=O)CNC(=O)[C@@H](N)Cc1ccc(O)cc1)C(=O)O` [TAT, reference compound] the “Mean % cells with GFP signal (±St. Dev.; n = 3)” value (HeLa cells; Table 10.4, Protocol B, HeLa, peptide 50 μM, GFP-NLS 5 μM, 10 seconds) was 1.1 ± 0.27%, the “GFP-NLS transduction (flow cytometry, in words)” value (HeLa cells; peptide 50 μM, GFP-NLS 5 μM, 10 seconds, Protocol B) was “not able to successfully transduce GFP-NLS” and the viability at 10 s, 50 µM (in vitro [1]) was 94.6 ± 0.44%.
`CC(C)C[C@H](NC(=O)[C@H](C)NC(=O)[C@H](CCCCN)NC(=O)[C@H](C)NC(=O)[C@H](CC(C)C)NC(=O)[C@H](CCCCN)NC(=O)[C@H](C)NC(=O)[C@H](CCC(=O)O)NC(=O)[C@H](Cc1c[nH]c2ccccc12)NC(=O)CNC(=O)[C@@H](NC(=O)[C@@H]1CCCN1C(=O)[C@H](CCCNC(=N)N)NC(=O)[C@H](CC(C)C)NC(=O)[C@H](CS)NC(=O)[C@@H](N)CC(C)C)C(C)C)C(=O)N[C@@H](C)C(=O)N[C@@H](CCCCN)C(=O)N[C@@H](C)C(=O)N[C@@H](CC(C)C)C(=O)N[C@@H](C)C(=O)N[C@@H](CCCCN)C(=O)N[C@@H](Cc1c[nH]cn1)C(=O)N[C@@H](CC(C)C)C(=O)N[C@@H](C)C(=O)N[C@@H](CCCCN)C(=O)N[C@@H](C)C(=O)N[C@@H](CC(C)C)C(=O)N[C@@H](C)C(=O)N[C@@H](CCCCN)C(=O)N[C@@H](C)C(=O)N[C@@H](CC(C)C)C(=O)N[C@@H](CCCCN)C(=O)N[C@@H](C)C(=O)N[C@@H](CS)C(=O)N[C@@H](CCC(=O)O)C(=O)N[C@@H](C)C(=O)O` [Xentry-KALA] (H-LCLRPVGWEAKLAKALAKALAKHLAKALAKALKACEA-OH) showed a viability (in vitro [2]) of 75.3 ± 4.29%.
In the case of HHHHHHFRKLWLAIVRAKK [FSN8], the viability (in vitro [1]; [3]) is reported as 94.5 ± 3.72%.
In the case of “HHHHHHKKALLALALHHLAHLALHLALALKKAYARAAARQARA [His--PTD4]”, the “Cell viability (%) (±St. Dev.; n = 3)” value (HeLa cells; [5]) is reported as 98 ± 1.5%.
In the case of “HHHHHHKLKLRSRLKWGRTQLWRALAKKALLHHHHHH [FSN2]”, the “Mean % cells … (±St Dev.; n = 3)” value (HeLa cells; [4]) is reported as 12.13 ± 2.06% and the viability (in vitro [1]; [3]) is reported as 91.3 ± 4.66%.
With “HHHHHHKRKKKRRAKKKRAWLYLALLLWALALHHHHHH [FSD3]” the viability (in vitro [1]; [6]) was 91.1 ± 6.37%.
In the case of “HHHHHHKRKRRSKKRKLWTQGWLLLALLALAHHHHHH [FSN1]”, the “Mean % cells … (±St Dev.; n = 3)” value (HeLa cells; [4]) is reported as 9.14 ± 0.93% and the viability (in vitro [1]) is reported as 94.3 ± 3.07%.
“HHHHHHKRQLKRKLRKWKRLLRLLRLLARLWLHHHHHH [FSD4]” gave a viability (in vitro [1]; [6]) of 86.1 ± 8.15%.
“HHHHHHKWAKLLRAFAKAIKKLYARLARRQARTGHHHHHH [FSD13]” gave a viability (in vitro [1]; [6]) of 49.5 ± 5.13%.
In the case of “HHHHHHKWKLFKKIGAVLKVLTTGGWTLNSAGYLLKINLKALAALAKKIL [His-CM18-Transportan (TPT)]”, the “Cell viability (%) (±St. Dev.; n = 3)” value (HeLa cells; Table 10.1, Protocol B, HeLa, shuttle 50 μM, GFP-NLS 5 μM, 10 seconds) is reported as 41.3 ± 3.3% and the “Cell viability (%) (±St. Dev.; n = 3)” value (HeLa cells; [5]) is reported as 41.3 ± 3.29%.
Molecule “HHHHHHKWKLFKKIGAVLKVLTTGGWTLNSAGYLLKINLKALAALAKKIL [His-CM18-Transportan]” has a viability (in vitro [2]) of 11.9 ± 1.07%.
For “HHHHHHKWKLFKKIGAVLKVLTTGYARAAARQARACCCCCC (cysteines drawn unpaired) [His-CM18-PTD4-6Cys]”, the “Mean % cells … (±St Dev.; n = 3)” value (HeLa cells; [7]) was 41.3 ± 4.28%.
For “HHHHHHKWKLFKKIGAVLKVLTTGYGRKKRRQRRRC [His-CM18-TAT-Cys]”, the “Mean % cells with GFP signal (±St. Dev.; n = 3)” value (HeLa cells; [5]) was 49.3 ± 4.1% and the viability at 10 s, 50 µM (in vitro [1]) was 41.4 ± 3.91%.
“HHHHHHKWKLLRRAAKKAARRYLKLLLKQLKLHHHHHH [FSD1]” showed a viability (in vitro [1]; [6]) of 60.3 ± 6.18%.
For “HHHHHHLAKLFKWLRALIRQGAKRKTKRASAHHHHHH [FSD17]”, the viability (in vitro [1]; [6]) was 99.1 ± 2.09%.
With “HHHHHHLALARWARYFRILAKLKRTKRGQAKAHHHHHH [FSD14]” the viability (in vitro [1]; [6]) was 92.8 ± 7.42%.
With “HHHHHHLLKLWRRLLKLFRKALRALAKRAKSALKRAQAA [FSN5]” the viability (in vitro [1]; [3]) was 85.4 ± 6.16%.
For “HHHHHHLLKLWSRLLKLWTQALRALAKRAKALAHHHHHH [FSN6]”, the “Mean % cells … (±St Dev.; n = 3)” value (HeLa cells; [4]) was 15.74 ± 1.63% and the viability (in vitro [1]; [3]) was 32.6 ± 4.26%.
In the case of “HHHHHHWYLALLALYWQRAKAKTRQRRRHHHHHH [FSD6]”, the viability (in vitro [1]; [6]) is reported as 88.1 ± 7.66%.
For “I: KWKLFKKIGAVLKVLTTGRQIKIWFQNRRMKWKKC / II: KWKLFKKIGAVLKVLTTGRQIKIWFQNRRMKWKKC (disulfide I:35-II:35) [dCM18-Pen-Cys]”, the viability (in vitro [2]) was 3.36 ± 0.26%.
With “KWKLFKKIGAVLKVLTTGHHHHHHYARAAARQARA [CM18-His-PTD4]” the “Cell viability (%) (±St. Dev.; n = 3)” value (HeLa cells; [7]) was 57.7 ± 4.2%.
With “KWKLFKKIGAVLKVLTTGYARAAARQARAHHHHHH [CM18-PTD4-His]” the viability (in vitro [2]) was 29.5 ± 0.21%.
Work on “LHHHSHHLIHIWLLFKLKLKKKKAARRARRARRHH [FSD29]” yielded a viability at 1 min, 10 µM (in vitro [1]; [3]) of 89.8 ± 8.48%.
LIKLWSRFIKFWTQGRRIKAKLARAGQSWFG [FSN7] gave a viability (in vitro [1]; [3]) of 93.5 ± 3.61%.
For “MHHHHHHKWKLFKKIGAVLKVLTTGYARAAARQARAC [Met-His-CM18-PTD4-Cys]”, the “Mean % cells … (±St Dev.; n = 3)” value (HeLa cells; [7]) was 45.6 ± 3.88%.
In the case of “MHHHHHHKWKLFKKIGAVLKVLTTGYGRKKRRQRRRC [M-His-CM18-TAT-Cys]”, the viability (in vitro [2]) is reported as 33.1 ± 0.4%.
In the case of “RLHHSHHLIHIWLLFKLKLKKKKRAARRARRHHHL [FSD37]”, the viability at 1 min, 10 µM (in vitro [1]; [3]) is reported as 73.9 ± 2.62%.
With “WEAKLAKALAKALAKHLAKALAKALKACEA [KALA, reference compound]” the viability (in vitro [2]) was 90.6 ± 4.16%.
